Where two headings read alike, the source gives them in different places.
Key:
[1] = test system: prostate cancer cell lines (e.g. DU145/TXR); assay: Cell based assay, cell viability (CellTiter-Glo), prostate cancer cell lines; conditions: Homo sapiens, 72 hours treatment, final concentration 0 to 2 μM
Method in brief: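 Following a 24 h pre-culture in plates, cells receive test compound (final 0 to 2 μM) for 72 hours. Luminescent quantitation of cellular ATP gives viability.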

[2] = test system: brain cancer cell lines; assay: Cell based assay, cell viability (CellTiter-Glo), brain cancer cell lines; conditions: Homo sapiens
[3] = CWR22 cells, read-out: IC50, prostate cancer cell line CWR22
[4] = DU-145, DU145/TXR cells, read-out: IC50, prostate cancer cell line DU145/TXR
[5] = DU-145, DU145 cells, read-out: IC50, prostate cancer cell line DU145
[6] = LNcap cells, read-out: IC50, prostate cancer cell line LNcap
[7] = PC-3 cells, read-out: IC50, prostate cancer cell line PC-3
[8] = U138-MG, U-138 MG cell line, read-out: IC50, Brain cancer cell line U-138 MG
[9] = T98G cell line, read-out: IC50, Brain cancer cell line T98G
[10] = U-251 MG cell line, read-out: IC50, Brain cancer cell line U-251 MG

| IC50 [1, 3] | IC50 [1, 4] | IC50 [1, 5] | IC50 [1, 6] | IC50 [1, 7] | IC50 [2, 8] | IC50 [2, 9] | IC50 [2, 10] | Compound |
| --- | --- | --- | --- | --- | --- | --- | --- | --- |
| > 2000 nM | > 2000 nM | > 2000 nM | > 2000 nM |  | > 10000 nM | > 10000 nM | > 2000 nM | CC(=O)c1c([S+]([O-])Cc2nonc2C)[nH]c2c(Br)ccc(Cl)c2c1=O (centres unmarked) [Compound 106, 3-acetyl-8-bromo-5-chloro-2-(((4-methyl-1,2,5-oxadiazol-3-yl)methyl)sulfinyl)quinolin-4(1H)-one] |
| > 2000 nM | > 2000 nM | > 2000 nM | > 2000 nM |  | > 10000 nM | > 10000 nM | > 2000 nM | CC(=O)c1c([S+]([O-])Cc2cnc3[nH]ccc3c2)[nH]c2c(Br)ccc(Cl)c2c1=O (centres unmarked) [Compound 107, 2-(((1H-pyrrolo[2,3-b]pyridin-5-yl)methyl)sulfinyl)-3-acetyl-8-bromo-5-chloroquinolin-4(1H)-one] |

Continued, compound first:

| Compound | IC50 [1, 3] | IC50 [1, 4] | IC50 [1, 5] | IC50 [1, 6] | IC50 [1, 7] | IC50 [2, 8] | IC50 [2, 9] | IC50 [2, 10] |
| --- | --- | --- | --- | --- | --- | --- | --- | --- |
| CC(=O)c1c([S+]([O-])Cc2ccc(C(F)(F)F)nc2C)[nH]c2c(Br)ccc(Cl)c2c1=O (centres unmarked) [Compound 102, 3-acetyl-8-bromo-5-chloro-2-(((2-methyl-6-(trifluoromethyl)pyridin-3-yl)methyl)sulfinyl)quinolin-4(1H)-one] | 1490 nM | 1120 nM | 1650 nM | > 2000 nM | 1830 nM | 1240 nM | > 10000 nM | > 2000 nM |
| CC(=O)c1c([S+]([O-])Cc2ccc(NS(C)(=O)=O)cc2)[nH]c2c(Br)ccc(Cl)c2c1=O (centres unmarked) [Compound 103, N-(4-(((3-acetyl-8-bromo-5-chloro-4-oxo-1,4-dihydroquinolin-2-yl)sulfinyl)methyl)phenyl)methane-sulfonamide] | > 2000 nM | > 2000 nM | > 2000 nM | > 2000 nM |  | > 2000 nM | > 10000 nM | > 2000 nM |
| CC(=O)c1c([S+]([O-])Cc2ccc(Cl)nc2)[nH]c2c(Br)ccc(Cl)c2c1=O (centres unmarked) [Compound 104, 3-acetyl-8-bromo-5-chloro-2-(((6-chloropyridin-3-yl)methyl)sulfinyl)quinolin-4(1H)-one] | 1550 nM | 1230 nM | 1640 nM | > 2000 nM | > 2000 nM | 1470 nM | > 10000 nM | > 2000 nM |
| COCCNc1ccc(C[S+]([O-])c2[nH]c3c(Br)ccc(Cl)c3c(=O)c2C(C)=O)cn1 (centres unmarked) [Compound 105, 3-acetyl-8-bromo-5-chloro-2-(((6-((2-methoxyethyl)amino)pyridin-3-yl)methyl)sulfinyl)quinolin-4(1H)-one] | > 2000 nM | > 2000 nM | > 2000 nM | > 2000 nM |  | > 10000 nM | > 10000 nM | > 2000 nM |

Reference: patent US11464770B2, “Anticancer pharmaceutical composition” (NATIONAL CANCER CENTER, priority 2016, dated 2022)
